Reference: PubChem BioAssay AID1963441 (Molecular Pharmacology Branch, DTP, NCI, 2024)
pIC50: −log10 of the molar value.

Test system: NCI-H1876 complex spheroid growth, % test/control
Experiment: Anticancer human tumor NCI-H1876 cell line growth inhibition [Asc];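 also: compound exposure lasted 7 days starting three days after seeding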;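 as to viability, T/C: 100% = DMSO vehicle control wells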
Conditions: for pIC50: curve of first compound; for viability, T/C: stronger effect = lower value
Procedure: Multicellular complex tumor spheroid response to apoptosis pathway targeting inhibitors Alrizomadlin, Pelcitoclax, and Dasminapant in combination with a variety of drugs and investigational agents in selected tumor cell lines
The MDM2 inhibitor alrizomadlin, the Bcl-2/Bcl-xL inhibitor pelcitoclax, and the IAPs inhibitor dasminapant were evaluated both individually and in combination with standard of care and investigational anticancer small molecules within a complex spheroid model of solid tumors. . Complex spheroids include a stromal component modeled by human endothelial cells (HUVEC) and fibroblasts modeled by human mesenchymal stem cells (MSCs). The concentration ranges selected for each drug and investigational agent were based upon clinically achievable concentrations if the clinical Cmax of the agent was known.
Compounds. The drugs and investigational agents: alrizomadlin (APG-115; NSC831270), pelcitoclax (APG-1252; NSC835773), dasminapant (APG-1387;NSC834197), TAK-243 (NSC785004), copanlisib (NSC809693), olaparib (NSC753686), talazoparib (NSC767125), cobimetinib (NSC 768068), eltanexor (KPT-8602, NSC 794443), abemaciclib (NSC 768073), sotorasib (NSC818433), adagrasib (NSC 831453), MRTX-1133 (NSC 836407), Iadademestat (ORY1001, NSC 806812), and RMC-4630 (NSC839698), were obtained from the NCI Developmental Therapeutics Program Chemical Repository. The FDA-approved anticancer drug set is available from the Developmental Therapeutics Program at https://dtp.cancer.gov/organization/dscb/obtaining/available plates.htm. […] The stock solutions were prepared in dimethyl sulfoxide (DMSO, Sigma-Aldrich, St. Louis, MO, cat. D2650) at 800-fold the tested concentration and stored at -70 degrees C prior to their use. All drugs and investigational agents were tested over a range starting from a high concentration at or near the clinical Cmax and decreasing in half-log increments. If the clinical Cmax for an agent had not been determined, the highest concentration tested was 10 microM.
The patient-derived cancer (PDC) cell lines include five colon adenocarcinomas: 186277-243-T-J2-PDC, 616215-338-R-J1-PDC, 439559-082-T-J2-PDC, 463943-066-T-J2-PDC, and 519858-162-T-J1-PDC; three pancreatic carcinomas: 323965-272-R-J2-PDC, 521955-158-R6-J3-PDC, and 521955-158-R2-J5-PDC; two uterine sarcomas: 327498-152-R-J2-PDC and 993429-296-R-J1-PDC; two rhabdomyosarcomas: 755483-174-R-J1-PDC and 772245-204-R-J1-PDC; two soft tissue sarcomas: 126254-015-R-J1-PDC and 494315-158-R-J1-PDC; two malignant fibrous histiocytomas: 317291-083-R-J1-PDC and 596521-263-R-J1-PDC; two breast carcinomas: 171881-019-R-J1-PDC and 885512-296-R-J2-PDC; and one ovarian carcinoma: 6556581-035-R-J-PDC were obtained from the NCI PDMR, (https://pdmr.cancer.gov). The established cell lines HSSY-2 synovial sarcoma (RRID:CVCL 8719), SYO-1 synovial sarcoma (RRID:CVCL_7146), MPNST malignant peripheral neural sheath tumor were obtained from the Sloan Kettering Institute. The following established cell lines were purchased from the American Type Culture Collection (ATCC, Manassas, VA), Sor the received from the NCI repository:, PANC-1 pancreatic carcinoma (CRL-1469, RRID:CVCL_0480), OVCAR-5 ovarian carcinoma (RRID:CVCL_1628), OVCAR-8 ovarian carcinoma (RRID:CVCL_1629), , MCF-7 breast carcinoma (CRL-12584, RRID:CVCL_0031), MDA-MB-231 breast carcinoma (CRL-12532, RRID:CVCL_0062), NCI-H1876 small cell lung carcinoma (CRL-5902, RRID:CVCL_1503), NCI-H510A small cell lung carcinoma (HTB-184, RRID:CVCL_1565), NCI-H1417 (CRL-5869, RRID:CVCL_1469), and NCI-H196 small cell lung carcinoma (CRL-5823, RRID:CVCL_1509). Dr. Peter Houghton (Greehey Children's Cancer Research Institute, University of Texas Health Science Center, San Antonio, TX) provided Rh-18 rhabdomyosarcoma (RRID:CVCL_1659). Pooled donor human umbilical vein endothelial cells (HUVEC, Lonza, cat. CC-2519) and human mesenchymal stem cells (hMSC, Lonza, cat. PT-2501) were purchased from Lonza (Walkersville, MD).
Cell Culture. […]

[1] = second compound 0.00949 µM, first compound 0.0316 µM
[2] = second compound 0.00949 µM, first compound 0.1 µM
[3] = second compound 0.03 µM, first compound 0.0316 µM
[4] = second compound 0.03 µM, first compound 0.1 µM
[5] = second compound 0.0949 µM, first compound 0.0316 µM
[6] = second compound 0.0949 µM, first compound 0.1 µM
[7] = second compound 0.3 µM, first compound 0.0316 µM
[8] = second compound 0.3 µM, first compound 0.1 µM
[9] = second compound 0.949 µM, first compound 0.0316 µM
[10] = second compound 0.949 µM, first compound 0.1 µM
[11] = second compound 3 µM, first compound 0.0316 µM
[12] = second compound 3 µM, first compound 0.1 µM

Compound `Cn1ncnc1[C@H]1c2n[nH]c(=O)c3cc(F)cc(c23)N[C@@H]1c1ccc(F)cc1` + CCN1C(C(=O)NC23CCC(C(=O)O)(CC2)CC3)C(c2cccc(Cl)c2F)C2(C(=O)Nc3cc(Cl)ccc32)C12CCCCC2 has a pIC50 (second compound 0.00949 µM) of under 7.00, a pIC50 (second compound 0.03 µM) of under 7.00 and a pIC50 (second compound 0.0949 µM) of under 7.00. It also gave a pIC50 (second compound 0.3 µM) of under 7.00, a pIC50 (second compound 0.949 µM) of under 7.00 and a pIC50 (second compound 3 µM) of under 7.00. For the same compound, the viability, T/C (second compound 0.00949 µM, first compound 0.000316 µM) was 123%, the viability, T/C (second compound 0.00949 µM, first compound 0.001 µM) was 89.9% and the viability, T/C (second compound 0.00949 µM, first compound 0.00316 µM) was 113%. The viability, T/C (second compound 0.00949 µM, first compound 0.01 µM) was 102%, the viability, T/C [1] was 100% and the viability, T/C [2] was 91.6%. The viability, T/C (second compound 0.03 µM, first compound 0.000316 µM) was 100%, the viability, T/C (second compound 0.03 µM, first compound 0.001 µM) was 102% and the viability, T/C (second compound 0.03 µM, first compound 0.00316 µM) was 107%. The viability, T/C (second compound 0.03 µM, first compound 0.01 µM) was 92.6%, the viability, T/C [3] was 106% and the viability, T/C [4] was 95.4%. The viability, T/C (second compound 0.0949 µM, first compound 0.000316 µM) was 101%, the viability, T/C (second compound 0.0949 µM, first compound 0.001 µM) was 99.4% and the viability, T/C (second compound 0.0949 µM, first compound 0.00316 µM) was 111%. It also gave a viability, T/C (second compound 0.0949 µM, first compound 0.01 µM) of 104%, a viability, T/C [5] of 113% and a viability, T/C [6] of 89%. For the same compound, the viability, T/C (second compound 0.3 µM, first compound 0.000316 µM) was 103%, the viability, T/C (second compound 0.3 µM, first compound 0.001 µM) was 120% and the viability, T/C (second compound 0.3 µM, first compound 0.00316 µM) was 111%. It also gave a viability, T/C (second compound 0.3 µM, first compound 0.01 µM) of 114%, a viability, T/C [7] of 110% and a viability, T/C [8] of 98.3%. The viability, T/C (second compound 0.949 µM, first compound 0.000316 µM) was 118%, the viability, T/C (second compound 0.949 µM, first compound 0.001 µM) was 134% and the viability, T/C (second compound 0.949 µM, first compound 0.00316 µM) was 117%. The viability, T/C (second compound 0.949 µM, first compound 0.01 µM) was 134%, the viability, T/C [9] was 123% and the viability, T/C [10] was 91.6%. For the same compound, the viability, T/C (second compound 3 µM, first compound 0.000316 µM) was 103%, the viability, T/C (second compound 3 µM, first compound 0.001 µM) was 105% and the viability, T/C (second compound 3 µM, first compound 0.00316 µM) was 81.3%. For the same compound, the viability, T/C (second compound 3 µM, first compound 0.01 µM) was 95.5%, the viability, T/C [11] was 95.2% and the viability, T/C [12] was 95.5%.

`O=C(c1cc(Cc2n[nH]c(=O)c3ccccc23)ccc1F)N1CCN(C(=O)C2CC2)CC1` + CCN1C(C(=O)NC23CCC(C(=O)O)(CC2)CC3)C(c2cccc(Cl)c2F)C2(C(=O)Nc3cc(Cl)ccc32)C12CCCCC2 gave a pIC50 (second compound 0.00949 µM) of under 5.00, a pIC50 (second compound 0.03 µM) of under 5.00 and a pIC50 (second compound 0.0949 µM) of under 5.00. It also gave a pIC50 (second compound 0.3 µM) of under 5.00, a pIC50 (second compound 0.949 µM) of under 5.00 and a pIC50 (second compound 3 µM) of under 5.00. The viability, T/C [1] was 99.3%, the viability, T/C [2] was 94.5% and the viability, T/C (second compound 0.00949 µM, first compound 0.316 µM) was 118%. The viability, T/C (second compound 0.00949 µM, first compound 1 µM) was 102%, the viability, T/C (second compound 0.00949 µM, first compound 3.16 µM) was 100% and the viability, T/C (second compound 0.00949 µM, first compound 10 µM) was 80.2%. The viability, T/C [3] was 104%, the viability, T/C [4] was 100% and the viability, T/C (second compound 0.03 µM, first compound 0.316 µM) was 97.4%. It also gave a viability, T/C (second compound 0.03 µM, first compound 1 µM) of 108%, a viability, T/C (second compound 0.03 µM, first compound 3.16 µM) of 116% and a viability, T/C (second compound 0.03 µM, first compound 10 µM) of 82%. The viability, T/C [5] was 101%, the viability, T/C [6] was 106% and the viability, T/C (second compound 0.0949 µM, first compound 0.316 µM) was 104%. For the same compound, the viability, T/C (second compound 0.0949 µM, first compound 1 µM) was 102%, the viability, T/C (second compound 0.0949 µM, first compound 3.16 µM) was 112% and the viability, T/C (second compound 0.0949 µM, first compound 10 µM) was 85.5%. The viability, T/C [7] was 106%, the viability, T/C [8] was 116% and the viability, T/C (second compound 0.3 µM, first compound 0.316 µM) was 108%. The viability, T/C (second compound 0.3 µM, first compound 1 µM) was 102%, the viability, T/C (second compound 0.3 µM, first compound 3.16 µM) was 112% and the viability, T/C (second compound 0.3 µM, first compound 10 µM) was 97%. For the same compound, the viability, T/C [9] was 122%, the viability, T/C [10] was 114% and the viability, T/C (second compound 0.949 µM, first compound 0.316 µM) was 110%. For the same compound, the viability, T/C (second compound 0.949 µM, first compound 1 µM) was 123%, the viability, T/C (second compound 0.949 µM, first compound 3.16 µM) was 117% and the viability, T/C (second compound 0.949 µM, first compound 10 µM) was 83.2%. The viability, T/C [11] was 102%, the viability, T/C [12] was 108% and the viability, T/C (second compound 3 µM, first compound 0.316 µM) was 101%. For the same compound, the viability, T/C (second compound 3 µM, first compound 1 µM) was 106%, the viability, T/C (second compound 3 µM, first compound 3.16 µM) was 98% and the viability, T/C (second compound 3 µM, first compound 10 µM) was 76.9%.
